The values below come from ChEMBL document CHEMBL5360626, “Bifunctionalized Betulinic Acid Conjugates with C-3-Monodesmoside and C-28-Triphenylphosphonium Moieties with Increased Cancer Cell Targetability” (J Nat Prod, 2023).

Activity calls are given as the source filed them. The rule behind the calls is not given here.

Data set [1] in a line: Drug accumulation in human PC-3 cells at 1 uM incubated for 2 hrs by LC-MS/MS analysis. It counts as ADME, cell-based. Conditions: pc-3, 2 h.
Data set [2] relates to PC-3. The experiment in a line: Cytotoxicity against human PC-3 cells incubated for 72 hrs by MTT assay. The settings on record: PC-3, 72 h. It counts as functional, cell-based.
The nature of data set [3]: Selectivity index, ratio of IC50 for human skin fibroblast to IC50 for human PC-3 cells. It counts as toxicity. The settings on record: human skin fibroblasts and PC-3 cells, read-out: Ratio IC50.
The test system of another data set is Caco-2. The experiment in a line: Cytotoxicity against human Caco-2 cells incubated for 72 hrs by MTT assay. It counts as functional, cell-based. The settings on record: Caco-2, 72 h. A general note: Formazan colour is commonly taken as a measure of viable cells.
A short description of data set [4]: Selectivity index, ratio of IC50 for human skin fibroblast to IC50 for human Caco-2 cells.
The subject of another data set is MCF7. The experiment in a line: Cytotoxicity against human MCF7 cells incubated for 72 hrs by MTT assay. It counts as functional, cell-based. Conditions: MCF7, 72 h.
Data set [5] can be described thus: Cytotoxicity against human skin fibroblast cells incubated for 72 hrs by MTT assay. It counts as toxicity, cell-based.
Data set [6] deals with PC-3. In words: Induction of mitochondrial transmembrane potential dissipation in human PC-3 cells at 30 uM incubated for 1 hr by TMRE staining based flow cytometry. It counts as functional, cell-based. For orientation: In flow cytometry, cells or beads pass a laser one at a time.
Data set [7] has as its system PC-3. The experiment in a line: […] of ROS production in human PC-3 cells at 30 uM incubated for 1 hr by MitoSOX staining based flow cytometry. The format is functional, cell-based.
Data set [8] has as its system PC-3. The experiment in a line: Downregulation of Akt expression in human PC-3 cells at IC50 incubated for 3 days by Western blot analysis. Conditions: time 3.0 day. It counts as functional, cell-based.
For data set [9], the system named is PC-3. In words: Upregulation of Cas3 expression in human PC-3 cells at IC50 incubated for 3 days by Western blot analysis. The format is functional, cell-based. Conditions: time 3.0 day.
For data set [10], the system named is PC-3. In words: Downregulation of ATG14 expression in human PC-3 cells at IC50 incubated for 3 days by Western blot analysis. Conditions: time 3.0 day. It counts as functional, cell-based. Background: In western blotting, separated proteins are transferred to a membrane and probed.
The subject of data set [11] is PC-3. In words: Downregulation of Beclin-1 expression in human PC-3 cells at IC50 incubated for 3 days by Western blot analysis. It counts as functional, cell-based. The settings on record: time 3.0 day.
In data set [12] the test system is PC-3. In words: Downregulation of LC-3 expression in human PC-3 cells at IC50 incubated for 3 days by Western blot analysis. The format is functional, cell-based. The settings on record: time 3.0 day.

In the case of `C=C(C)[C@@H]1CC[C@]2(C(=O)O)CC[C@]3(C)[C@H](CC[C@@H]4[C@@]5(C)CC[C@H](O)C(C)(C)[C@@H]5CC[C@]43C)[C@@H]12` [BETULINIC ACID], the Drug uptake in [1] stood at 0.035 µM.

As a reminder, the IC50 is the midpoint of a concentration-inhibition curve. Read a high IC50 as weaker potency. Consider `C=C(C)[C@@H]1CC[C@]2(C(=O)OCCCCCC[P+](c3ccccc3)(c3ccccc3)c3ccccc3)CC[C@]3(C)[C@H](CC[C@@H]4[C@@]5(C)CC[C@H](O)C(C)(C)[C@@H]5CC[C@]43C)[C@@H]12.[Br-]`, for which the IC50 with PC-3 [2] is 800 nM; in the data set on Caco-2 it was 1400 nM; with MCF7 it was 800 nM. In addition, the selectivity ratio in data set [3] was found to be 8.3. The Ratio IC50 in data set [4] stood at 4.7. This molecule also yielded a half-maximal inhibitory concentration (IC50) at 72 h in data set [5] of 8.5 µM. The molecule further returned a Drug uptake in data set [1] of 3.5 µM.

Consider `C=C(C)[C@@H]1CC[C@]2(C(=O)OCCCCCC[P+](c3ccccc3)(c3ccccc3)c3ccccc3)CC[C@]3(C)[C@H](CC[C@@H]4[C@@]5(C)CC[C@H](O[C@H]6O[C@H](CO)[C@@H](O)[C@H](O)[C@@H]6O)C(C)(C)[C@@H]5CC[C@]43C)[C@@H]12.[Br-]`, for which the IC50 in the data set on PC-3 [2] stood at 2300 nM; in the data set on Caco-2 it was 2400 nM; in the data set with MCF7, 2000 nM. The selectivity ratio in data set [3] is 2.5. The Ratio IC50 in data set [4] was 2.4. This molecule returned a half-inhibitory concentration (IC50) at 72 h in [5] of 2.9 µM. Further, the Drug uptake in [1] amounted to 3.5 µM. Besides, the outcome in the data set with PC-3 [6] and in the data set on PC-3 [7] was Active.

With `C=C(C)[C@@H]1CC[C@]2(C(=O)OCCCCCC[P+](c3ccccc3)(c3ccccc3)c3ccccc3)CC[C@]3(C)[C@H](CC[C@@H]4[C@@]5(C)CC[C@H](O[C@@H]6O[C@@H](C)[C@H](O)[C@@H](O)[C@H]6O)C(C)(C)[C@@H]5CC[C@]43C)[C@@H]12.[Br-]`, the IC50 in the data set on PC-3 [2] was 1200 nM; with Caco-2 it was 2000 nM; in the data set with MCF7, 1100 nM. Besides, in data set [3], the selectivity ratio came to 9.7. The Ratio IC50 in data set [4] turned out to be 5.9. In data set [5], this molecule showed an IC50 at 72 h of 10.8 µM. The molecule also returned a Drug uptake in data set [1] of 3.5 µM. Also, the outcome in the data set with PC-3 [6], with PC-3 [7], in the data set on PC-3 [8], in the data set with PC-3 [9], in the data set on PC-3 [10] and with PC-3 [11] was Active. Moreover, the outcome with PC-3 [12] was Active.

In the case of `C=C(C)[C@@H]1CC[C@]2(C(=O)OCCCCCC[P+](c3ccccc3)(c3ccccc3)c3ccccc3)CC[C@]3(C)[C@H](CC[C@@H]4[C@@]5(C)CC[C@H](O[C@@H]6O[C@H](CO)[C@@H](O)[C@H](O)[C@H]6O)C(C)(C)[C@@H]5CC[C@]43C)[C@@H]12.[Br-]`, the IC50 in the data set on PC-3 [2] came out at 400 nM; in the data set on Caco-2, 1100 nM; in the data set on MCF7, 700 nM. Moreover, in data set [3], the selectivity ratio turned out to be 32. The Ratio IC50 in [4] turned out to be 10.2. In addition, the concentration for half-maximal inhibition (IC50) at 72 h in data set [5] is 16.5 µM. The molecule further yielded a Drug uptake in data set [1] of 172.9 µM. In addition, the outcome in the data set with PC-3 [6], in the data set on PC-3 [7], with PC-3 [8], with PC-3 [9], in the data set with PC-3 [10] and in the data set with PC-3 [11] was Active. Also, in the data set with PC-3 [12], the result was Active.
